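In this assay, cells in 96-well plates receive the compound at five concentrations for 48 hours. Endpoints are linearly interpolated between the surrounding concentrations. GI50 is the concentration that inhibits growth by half. At the TGI there is no net growth.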
Assays:
Experiment in all cases: NCI tumour cell line growth inhibition, 48 h
[1] = system: MDA-MB-468 breast
[2] = system: A498 renal
[3] = system: ACHN renal
[4] = system: BT-549 breast
[5] = system: CAKI-1 renal
[6] = system: CCRF-CEM leukemia
[7] = system: DU-145 prostate
[8] = system: EKVX NSCLC
[9] = system: HCC-2998 colon
[10] = system: HCT-15 colon
[11] = system: HL-60(TB) leukemia
[12] = system: HOP-92 NSCLC
[13] = system: HS 578T breast
[14] = system: HT29 colon
[15] = system: IGROV1 ovarian
[16] = system: K-562 leukemia
[17] = system: LOX IMVI melanoma
[18] = system: MALME-3M melanoma
[19] = system: MCF7 breast
[20] = system: MDA-MB-231 breast
[21] = system: MDA-MB-435
[22] = system: MOLT-4 leukemia
[23] = system: NCI-H23 lung
[24] = system: NCI-H460 lung
[25] = system: NCI-H522 lung
[26] = system: NCI/ADR-RES ovarian
[27] = system: OVCAR-3 ovarian
[28] = system: OVCAR-5 ovarian
[29] = system: RXF 393 renal
[30] = system: SF-268 CNS
[31] = system: SF-295 CNS
[32] = system: SF-539 CNS
[33] = system: SK-MEL-2 melanoma
[34] = system: SK-MEL-28 melanoma
[35] = system: SK-MEL-5 melanoma
[36] = system: SK-OV-3 ovarian
[37] = system: SN12C renal
[38] = system: SNB-19 CNS
[39] = system: SNB-75 CNS
[40] = system: SR leukemia
[41] = system: SW-620 colon
[42] = system: TK-10 renal
[43] = system: UACC-257 melanoma
[44] = system: UACC-62 melanoma
[45] = system: UO-31 renal

## CCN(CC)CCOC(COc1cc(C)cc(C)c1)COc1cc(C)cc(C)c1
[1]
  GI50: 1.74 µM
  TGI: 3.55 µM

## CN(C)CCCN1c2ccccc2Sc2ccc(C(F)(F)F)cc21
[1]
  GI50: 1.25 µM
  TGI: 2.65 µM

## CCN(CC)c1ccc(/C=N/NC(=O)Cc2ccc(Nc3ccnc(C(F)(F)F)c3)cc2)c(O)c1
[1]
  GI50: 0.588 µM
  TGI: > 60.3 µM

## CCCCCCCCCCCC1N=C(N)N=C(N)N1c1cccc(Br)c1 (stereo not drawn)
[1]
  GI50: 0.528 µM
  TGI: 1.98 µM

## CN1CCCCC1CCN1c2ccccc2Sc2ccc(Br)cc21 (stereo not drawn)
[1]
  GI50: 1.78 µM
  TGI: 3.65 µM

## CC1(C)CC(O)CC(C)(C)N1O
[1]
  GI50: > 100 µM
  TGI: > 100 µM

## CC(=O)Nc1ccc(-c2cn(-c3cccc(C(=O)Nc4cc(CN5CCOCC5)cc(C(F)(F)F)c4)c3)nn2)cn1
[2]
  GI50: 2.41 µM
  TGI: 4.57 µM
[3]
  GI50: 1.77 µM
  TGI: 3.26 µM
[4]
  GI50: 2.59 µM
  TGI: 4.44 µM
[5]
  GI50: 1.91 µM
  TGI: 3.48 µM
[6]
  GI50: 3.34 µM
  TGI: > 100 µM
[7]
  GI50: 2.4 µM
  TGI: 5.11 µM
[8]
  GI50: 2.44 µM
  TGI: 6.13 µM
[9]
  GI50: 1.94 µM
  TGI: 3.5 µM
[10]
  GI50: 2.03 µM
  TGI: 4.11 µM
[11]
  GI50: 1.33 µM
  TGI: 5.47 µM
[12]
  GI50: 1.95 µM
  TGI: 4.62 µM
[13]
  GI50: 1.9 µM
  TGI: 5.04 µM
[14]
  GI50: 2 µM
  TGI: 5.97 µM
[15]
  GI50: 2.19 µM
  TGI: 5.12 µM
[16]
  GI50: 0.178 µM
  TGI: > 100 µM
[17]
  GI50: 1.42 µM
  TGI: 2.8 µM
[18]
  GI50: 0.477 µM
  TGI: 1.82 µM
[19]
  GI50: 1.72 µM
  TGI: 3.35 µM
[20]
  GI50: 1.23 µM
  TGI: 2.59 µM
[21]
  GI50: 1.58 µM
  TGI: 3.29 µM
[1]
  GI50: 1.65 µM
  TGI: 3.1 µM
[22]
  GI50: 3.12 µM
  TGI: 16.7 µM
[23]
  GI50: 1.63 µM
  TGI: 3.08 µM
[24]
  GI50: 2.34 µM
  TGI: 5.11 µM
[25]
  GI50: 2.04 µM
  TGI: 4.82 µM
[26]
  GI50: 9.4 µM
  TGI: > 100 µM
[27]
  GI50: 2.23 µM
  TGI: 3.99 µM
[28]
  GI50: 1.88 µM
  TGI: 4.99 µM
[29]
  GI50: 1.87 µM
  TGI: 3.36 µM
[30]
  GI50: 2.58 µM
  TGI: 5.58 µM
[31]
  GI50: 1.59 µM
  TGI: 2.94 µM
[32]
  GI50: 1.48 µM
  TGI: 2.82 µM
[33]
  GI50: 2.13 µM
  TGI: 5.44 µM
[34]
  GI50: 1.28 µM
  TGI: 2.57 µM
[35]
  GI50: 1.57 µM
  TGI: 2.93 µM
[36]
  GI50: 2.13 µM
  TGI: 3.93 µM
[37]
  GI50: 1.65 µM
  TGI: 3.08 µM
[38]
  GI50: 2.23 µM
  TGI: 4.36 µM
[39]
  GI50: 1.78 µM
  TGI: 3.28 µM
[40]
  GI50: > 100 µM
  TGI: > 100 µM
[41]
  GI50: 1.94 µM
  TGI: 3.83 µM
[42]
  GI50: 0.433 µM
  TGI: 1.46 µM
[43]
  GI50: 1.63 µM
  TGI: 3.57 µM
[44]
  GI50: 1.29 µM
  TGI: 2.66 µM
[45]
  GI50: 1.92 µM
  TGI: 3.8 µM

## COC(=O)c1c(C)nc(C)c2c1C(=O)C(Br)=C(NCc1ccccc1)C2=O
[1]
  GI50: 1.11 µM
  TGI: 2.75 µM

## Nc1ccc(CC[C@H]2CCC/C=C/[C@@H]3C[C@H](O)C[C@H]3[C@H](O)/C=C/C(=O)O2)cc1
[1]
  GI50: 0.0106 µM
  TGI: 0.0374 µM

## [Br][Pb]([c]1ccccc1)([c]1ccccc1)[c]1ccccc1
[1]
  GI50: 0.148 µM
  TGI: 0.294 µM

## COc1cc(-c2nc(-c3ccccc3)c(-c3ccccc3)[nH]2)cc(OC)c1O
[1]
  GI50: 15.2 µM
  TGI: 37.7 µM

## COc1ccc2nc3ccccc3c(NCCNCCO)c2c1
[1]
  GI50: 0.351 µM
  TGI: 1.37 µM

## CC[C@H](C)[C@H](NC(=O)C12C3C4C1C1C2C3C41NC)C(=O)N(C)[C@H](C[C@@H](OC(C)=O)c1nc(C(=O)N[C@@H](Cc2ccccc2)C[C@H](C)C(=O)OC)cs1)C(C)C (stereo partly drawn)
[1]
  GI50: 0.217 µM
  TGI: > 5.49 µM

## CN1C2C=CC(=O)C1C1C(=O)N(c3ccccc3)C(=O)C12 (stereo not drawn)
[1]
  GI50: 2.45 µM
  TGI: 9.03 µM

## Cc1ccc(NCCNCC(C)(C)O)c2c(=O)c3ccc(Cl)cc3sc12
[1]
  GI50: 1.7 µM
  TGI: 3.24 µM

## COc1cc(N=Nc2cc(Cc3ccc(N(C)C)cc3)c(N)cc2N(C)C)c2ncccc2c1
[1]
  GI50: 0.226 µM
  TGI: 0.622 µM

## CC1(C)N=C(N)N=C(N)N1c1ccc(CCCC(=O)Nc2ccc(S(=O)(=O)F)cc2)cc1
[1]
  GI50: 3.33 µM
  TGI: > 100 µM

## O=C(Nc1cccc(-n2ccc3c(NC(=O)c4ccccc4)ncnc32)c1)Nc1ccc(Cl)c(C(F)(F)F)c1
[1]
  GI50: 1.48 µM
  TGI: 6.06 µM

## CC(=O)c1cc2c(N)c(C(=O)Nc3cccc4ccccc34)sc2nc1C
[1]
  GI50: 1.64 µM
  TGI: 31.1 µM

## Nc1ncn([C@H]2CC(O)[C@@H](CO)S2)c(=O)n1 (stereo partly drawn)
[1]
  GI50: 5.8 µM
  TGI: > 100 µM

## COc1cc2ncn(-c3cc(OCc4ccccc4C(F)(F)F)c(C(N)=O)s3)c2cc1OC
[1]
  GI50: 0.0619 µM
  TGI: 0.857 µM

## NC(=NCCCCCCN=C(N)/N=C(\N)Nc1ccc(Cl)cc1)/N=C(\N)Nc1ccc(Cl)cc1
[1]
  GI50: 0.952 µM
  TGI: 2.28 µM

## N[C@@H]1CCCN(c2c(Br)cnc3[nH]cc(NC(=O)C4CC4)c23)C1
[1]
  GI50: 2.11 µM
  TGI: 36.2 µM

## Cc1cc(NC(=O)NCc2ccc(N3C(N)=NC(N)=NC3(C)C)cc2)ccc1S(=O)(=O)F
[1]
  GI50: 7.99 µM
  TGI: > 100 µM

## Nc1nc(SCc2ccccc2CCl)c2[nH]cnc2n1
[1]
  GI50: 11.9 µM
  TGI: 30.8 µM

## CNC(=O)CCN1CCN(CC/C=C2\c3ccccc3Sc3ccc(Cl)cc32)CC1
[1]
  GI50: 3.63 µM
  TGI: 16.9 µM

## CCn1c(-c2nonc2N)nc2ccccc21
[1]
  GI50: > 14.9 µM
  TGI: > 25 µM

## Cc1ccc(S(=O)(=O)OC[C@@]2(C)CC[C@]3(C)CC[C@]4(C)C(=C3C2)C=C[C@@H]2[C@@]3(C)CCCNC(C)(C)[C@@H]3CC[C@]24C)cc1
[1]
  GI50: 1.59 µM
  TGI: 3.22 µM

## Cc1cc(N2CCC(N3CCCC3)CC2)nc(/N=C(\N)Nc2ccc(Cl)c(Cl)c2)n1
[1]
  GI50: 1.4 µM
  TGI: 2.73 µM

## COc1cc(C(=O)c2cnc(-c3c[nH]c4cccc(C)c34)[nH]2)cc(OC)c1OC
[1]
  GI50: 0.00264 µM

## Cc1ccc(-c2nc(NCCOCCOCCN)nc(N3CCN(c4ccccn4)CC3)n2)cc1
[1]
  GI50: 7.04 µM
  TGI: 18 µM

## Cn1c(=O)c(-c2ccccc2Cl)cc2cnc(NC3CCOCC3)nc21
[1]
  GI50: > 19.9 µM
  TGI: > 25 µM

## COc1cc2c(c(OC)c1OC)-c1cc(I)c(O)cc1[C@@H](NC(C)=O)CC2
[1]
  GI50: 0.0243 µM
  TGI: 0.0715 µM

## COc1cccc(C2CC(=O)Nc3c2c(C)nn3-c2nc3ccccc3[nH]2)c1OC (stereo not drawn)
[1]
  GI50: 4.11 µM
  TGI: 32.6 µM

## O=c1c(I)c[nH]cc1I
[1]
  GI50: > 100 µM
  TGI: > 100 µM

## [O]=[Sn]([CH]1CCCCC1)[CH]1CCCCC1
[1]
  GI50: 0.0977 µM
  TGI: 0.25 µM

## O=C1C(Cl)=C(Nc2ccc(S(=O)(=O)c3ccc(NC4=C(Cl)C(=O)c5ccccc5C4=O)cc3)cc2)C(=O)c2ccccc21
[1]
  GI50: 1.5 µM
  TGI: 3.09 µM

## CC[C@]12C=CCN3CC[C@]4(C(=C(C(=O)OC)C1)Nc1cc5c(cc14)[C@@H]1[C@H](O5)[C@@H](O)[C@@]4(CC)CC(C(=O)OC)=C5Nc6cc(O)ccc6[C@@]56CCN1C46)C32 (stereo partly drawn)
[1]
  GI50: 0.0384 µM
  TGI: 1.51 µM

## Clc1ccc2c(NCCNc3nc(N4CCOCC4)nc4ccccc34)ccnc2c1
[1]
  GI50: 1.91 µM
  TGI: 4.53 µM

## CC[C@H](C)[C@H](NC(=O)[C@H]1CCCCN1C)C(=O)N(C)[C@H](CCc1nc(C(=O)N[C@@H](Cc2ccccc2)C[C@H](C)C(=O)O)cs1)C(C)C
[1]
  GI50: 0.085 µM
  TGI: > 25 µM

## O=C(/C=C/c1ccc(O)c(O)c1)N1CCN(c2ccc(Cl)cc2)CC1
[1]
  GI50: 2.45 µM
  TGI: 13 µM

## CCn1cc(C(=O)O)c(=O)c2cc(F)c(N3CCN(S(=O)(=O)c4ccc(Cl)cc4Cl)CC3)cc21
[1]
  GI50: 1.98 µM
  TGI: 5.5 µM

## CCCCNc1ncnc2c1cnn2-c1ccccc1
[1]
  GI50: 2.24 µM
  TGI: 7.6 µM
